Source: US20210186960A1, “MODULATORS OF INDOLEAMINE 2,3-DIOXYGENASE” (GLAXOSMITHKLINE INTELLECTUAL PROPERTY DEVELOPMENT LIMITED, priority 2017, published 2021)
Values joined by “and” are separate entries in the source; they are usually repeats but may differ in a detail not shown here. Identical values can stand only once.

What was measured:
[1] = Plasma PK and tissue distribution after oral dosing of INTERMEDIATE C4 (3 mg/kg); type: in vivo; details: PO 3 mg/kg INTERMEDIATE C4, male Wistar Han rat; for Kp at 1 h / Kp at 4 h / Kp at 8 h / Kp / concentration at 1 h / concentration at 4 h / concentration at 8 h: male, Wistar Han, rat, po
Description: (§1) Tissue Distribution of drug intermediate C4 from oral dosing of C4 and of intermediate C4 from oral dosing of example 7 in rats
(§2) • Wistar Han rat, 185-197 g, male, N=8, purchased from Beijing Vital River Co. LTD. Qualification No.: SCXK(J) 2016-0011 11400700240027. Fasted overnight and fed 4 hr post dose. PO: 3 mg/kg (10 mL/kg) via oral gavage(N=8). Sampling at 1, 4, 8 and 24 hr , 4 time points, terminal bleeding for plasma, liver, lymph nodes and spleen collected at each time point.

[2] = Plasma PK and tissue distribution after oral dosing of prodrug EXAMPLE 7 (5 mg/kg); type: in vivo; details: PO 5 mg/kg EXAMPLE 7 (prodrug), analyte as labelled
Description: as §1
as §2, with “5” for “3”, “point” for “point.”

[3] = male Wistar Han rat, 1 hr, 5 mg/kg
[4] = male Wistar Han rat, 4 hr, 5 mg/kg

Liver to plasma ratio individual ([1]; 1 hr, 3 mg/kg): 8.11 | Lymph node to plasma ratio individual ([1]; 1 hr, 3 mg/kg): 0.254 | Spleen to plasma ratio individual ([1]; 1 hr, 3 mg/kg): 0.197 | liver Concentration individual ([1]; 1 hr, 3 mg/kg): 2570 ng/g | lymph node Concentration individual ([1]; 1 hr, 3 mg/kg): 80.4 ng/g | plasma Concentration individual ([1]; 1 hr, 3 mg/kg): 317 ng/mL | spleen Concentration individual ([1]; 1 hr, 3 mg/kg): 62.4 ng/g | Liver to plasma ratio individual ([1]; 4 hr, 3 mg/kg): 14.7 | Lymph node to plasma ratio individual ([1]; 4 hr, 3 mg/kg): 0.905 | Spleen to plasma ratio individual ([1]; 4 hr, 3 mg/kg): 0.333 | liver Concentration individual ([1]; 4 hr, 3 mg/kg): 898 ng/g | lymph node Concentration individual ([1]; 4 hr, 3 mg/kg): 55.4 ng/g | plasma Concentration individual ([1]; 4 hr, 3 mg/kg): 61.2 ng/mL | spleen Concentration individual ([1]; 4 hr, 3 mg/kg): 20.4 ng/g | spleen Concentration Mean ([1]; 8 hr): BQL | spleen Concentration individual ([1]; 8 hr): BQL | Liver to plasma ratio individual ([1]; 8 hr, 3 mg/kg): 13.2 | liver Concentration individual ([1]; 8 hr, 3 mg/kg): 299 ng/g | lymph node Concentration individual ([1]; 8 hr, 3 mg/kg): BQL | plasma Concentration individual ([1]; 8 hr, 3 mg/kg): 22.7 ng/mL | liver Concentration Mean ([1]; 24 hr): BQL | liver Concentration individual ([1]; 24 hr): BQL | lymph node Concentration Mean ([1]; 24 hr): BQL | lymph node Concentration individual ([1]; 24 hr): BQL | plasma Concentration Mean ([1]; 24 hr): BQL | plasma Concentration individual ([1]; 24 hr): BQL | spleen Concentration Mean ([1]; 24 hr): BQL | spleen Concentration individual ([1]; 24 hr): BQL | AUC(0-t) ([1]; liver, read-out: AUClast (liver)): 10200 ng·h/mL | AUC(0-t) ([1]; lymph node, read-out: AUClast (lymph node)): 381 ng·h/mL | Kp at 1 h ([1]; liver / plasma, 3 mg/kg, 1 hr, read-out: Liver to plasma ratio Mean): 9.31 | Kp at 1 h ([1]; liver / plasma, 3 mg/kg, 1 hr, read-out: Liver to plasma ratio individual): 10.5 | Kp at 4 h ([1]; liver / plasma, 3 mg/kg, 4 hr, read-out: Liver to plasma ratio Mean): 13.7 | Kp at 4 h ([1]; liver / plasma, 3 mg/kg, 4 hr, read-out: Liver to plasma ratio individual): 12.7 | Kp at 8 h ([1]; liver / plasma, 3 mg/kg, 8 hr, read-out: Liver to plasma ratio Mean): 14.6 | Kp at 8 h ([1]; liver / plasma, 3 mg/kg, 8 hr, read-out: Liver to plasma ratio individual): 16 | Kp ([1]; liver / plasma, 3 mg/kg, read-out: AUCliver/AUCplasma): 10.7 | concentration at 1 h ([1]; liver, 3 mg/kg, 1 hr, read-out: liver Concentration Mean): 3130 ng/g | concentration at 1 h ([1]; liver, 3 mg/kg, 1 hr, read-out: liver Concentration individual): 3690 ng/g | concentration at 4 h ([1]; liver, 3 mg/kg, 4 hr, read-out: liver Concentration Mean): 883 ng/g | concentration at 4 h ([1]; liver, 3 mg/kg, 4 hr, read-out: liver Concentration individual): 868 ng/g | concentration at 8 h ([1]; liver, 3 mg/kg, 8 hr, read-out: liver Concentration Mean): 420 ng/g | concentration at 8 h ([1]; liver, 3 mg/kg, 8 hr, read-out: liver Concentration individual): 540 ng/g | Kp at 1 h ([1]; lymph node / plasma, 3 mg/kg, 1 hr, read-out: Lymph node to plasma ratio Mean): 0.293 | Kp at 1 h ([1]; lymph node / plasma, 3 mg/kg, 1 hr, read-out: Lymph node to plasma ratio individual): 0.333 | Kp at 4 h ([1]; lymph node / plasma, 3 mg/kg, 4 hr, read-out: Lymph node to plasma ratio Mean): 0.716 | Kp at 4 h ([1]; lymph node / plasma, 3 mg/kg, 4 hr, read-out: Lymph node to plasma ratio individual): 0.526 | Kp at 8 h ([1]; lymph node / plasma, 3 mg/kg, 8 hr, read-out: Lymph node to plasma ratio Mean): 0.353 | Kp at 8 h ([1]; lymph node / plasma, 3 mg/kg, 8 hr, read-out: Lymph node to plasma ratio individual): 0.353 | Kp ([1]; lymph node / plasma, 3 mg/kg, read-out: AUClimphnode/AUCplasma): 0.401 | concentration at 1 h ([1]; lymph node, 3 mg/kg, 1 hr, read-out: lymph node Concentration Mean): 98.7 ng/g | concentration at 1 h ([1]; lymph node, 3 mg/kg, 1 hr, read-out: lymph node Concentration individual): 117 ng/g | concentration at 4 h ([1]; lymph node, 3 mg/kg, 4 hr, read-out: lymph node Concentration Mean): 45.7 ng/g | concentration at 4 h ([1]; lymph node, 3 mg/kg, 4 hr, read-out: lymph node Concentration individual): 35.9 ng/g | concentration at 8 h ([1]; lymph node, 3 mg/kg, 8 hr, read-out: lymph node Concentration Mean): 11.9 ng/g | concentration at 8 h ([1]; lymph node, 3 mg/kg, 8 hr, read-out: lymph node Concentration individual): 11.9 ng/g | concentration at 1 h ([1]; plasma, 3 mg/kg, 1 hr, read-out: plasma Concentration Mean): 334 ng/mL | concentration at 1 h ([1]; plasma, 3 mg/kg, 1 hr, read-out: plasma Concentration individual): 351 ng/mL | concentration at 4 h ([1]; plasma, 3 mg/kg, 4 hr, read-out: plasma Concentration Mean): 64.7 ng/mL | concentration at 4 h ([1]; plasma, 3 mg/kg, 4 hr, read-out: plasma Concentration individual): 68.2 ng/mL | concentration at 8 h ([1]; plasma, 3 mg/kg, 8 hr, read-out: plasma Concentration Mean): 28.2 ng/mL | concentration at 8 h ([1]; plasma, 3 mg/kg, 8 hr, read-out: plasma Concentration individual): 33.7 ng/mL | concentration at 1 h ([1]; spleen, 3 mg/kg, 1 hr, read-out: spleen Concentration Mean): 63.9 ng/g | concentration at 1 h ([1]; spleen, 3 mg/kg, 1 hr, read-out: spleen Concentration individual): 65.3 ng/g | concentration at 4 h ([1]; spleen, 3 mg/kg, 4 hr, read-out: spleen Concentration Mean): 19.9 ng/g | concentration at 4 h ([1]; spleen, 3 mg/kg, 4 hr, read-out: spleen Concentration individual): 19.3 ng/g | Kp at 1 h ([1]; spleen/plasma, 3 mg/kg, 1 hr, read-out: Spleen to plasma ratio Mean): 0.191 | Kp at 1 h ([1]; spleen/plasma, 3 mg/kg, 1 hr, read-out: Spleen to plasma ratio individual): 0.186 | Kp at 4 h ([1]; spleen/plasma, 3 mg/kg, 4 hr, read-out: Spleen to plasma ratio Mean): 0.308 | Kp at 4 h ([1]; spleen/plasma, 3 mg/kg, 4 hr, read-out: Spleen to plasma ratio individual): 0.283 | Kp ([1]; spleen/plasma, 3 mg/kg, read-out: AUCspleen/AUCplasma): 0.166 | AUC(0-inf) ([1]; plasma, mean): 1030 ng·h/mL | Cmax ([1]; plasma, mean): 334 ng/mL | Tmax ([1]; plasma, mean): 1 h | AUC(0-t) ([1]; plasma, mean, read-out: AUClast): 951 ng·h/mL | half-life ([1]; plasma, mean, read-out: Terminal t1/2 (converted)): 2.01 h | AUC(0-t) ([1]; spleen, read-out: AUClast (spleen)): 157 ng·h/mL | Lymph node to plasma ratio individual [2, 3]: 2.99 | Spleen to plasma ratio individual [2, 3]: 0.677 | lymph node Concentration individual [2, 3]: 685 ng/g | plasma Concentration individual [2, 3]: 229 ng/mL | spleen Concentration individual [2, 3]: 155 ng/g | Lymph node to plasma ratio individual [2, 4]: 2.15 | Spleen to plasma ratio individual [2, 4]: 0.260 | lymph node Concentration individual [2, 4]: 63.1 ng/g | spleen Concentration individual [2, 4]: 23.1 ng/g and 7.65 ng/g | spleen Concentration Mean ([2]; male Wistar Han rat, 8 hr): BQL | spleen Concentration individual ([2]; male Wistar Han rat, 8 hr): BQL | lymph node Concentration individual ([2]; male Wistar Han rat, 8 hr, 5 mg/kg): 16.3 ng/g and 6.17 ng/g | liver Concentration Mean ([2]; male Wistar Han rat, 24 hr): BQL | liver Concentration individual ([2]; male Wistar Han rat, 24 hr): BQL | lymph node Concentration Mean ([2]; male Wistar Han rat, 24 hr): BQL | lymph node Concentration individual ([2]; male Wistar Han rat, 24 hr): BQL | plasma Concentration Mean ([2]; male Wistar Han rat, 24 hr): BQL | plasma Concentration individual ([2]; male Wistar Han rat, 24 hr): BQL | spleen Concentration Mean ([2]; male Wistar Han rat, 24 hr): BQL | spleen Concentration individual ([2]; male Wistar Han rat, 24 hr): BQL | AUC(0-t) ([2]; lymph node, male Wistar Han rat, read-out: AUClast (lymph node)): 1890 ng·h/mL | concentration at 1 h ([2]; male, Wistar Han, rat, lymph node, po, 5 mg/kg, 1 hr, read-out: lymph node Concentration Mean): 807 ng/g | concentration at 1 h ([2]; male, Wistar Han, rat, lymph node, po, 5 mg/kg, 1 hr, read-out: lymph node Concentration individual): 928 ng/g | concentration at 4 h ([2]; male, Wistar Han, rat, lymph node, po, 5 mg/kg, 4 hr, read-out: lymph node Concentration Mean): 73.8 ng/g | concentration at 4 h ([2]; male, Wistar Han, rat, lymph node, po, 5 mg/kg, 4 hr, read-out: lymph node Concentration individual): 84.4 ng/g | concentration at 8 h ([2]; male, Wistar Han, rat, lymph node, po, 5 mg/kg, 8 hr): 11.2 ng/g | Kp at 1 h ([2]; male, Wistar Han, rat, lymph node/plasma, po, 5 mg/kg, 1 hr, read-out: Lymph node to plasma ratio Mean): 3.86 | Kp at 1 h ([2]; male, Wistar Han, rat, lymph node/plasma, po, 5 mg/kg, 1 hr, read-out: Lymph node to plasma ratio individual): 4.73 | Kp at 4 h ([2]; male, Wistar Han, rat, lymph node/plasma, po, 5 mg/kg, 4 hr, read-out: Lymph node to plasma ratio Mean): 1.66 | Kp at 4 h ([2]; male, Wistar Han, rat, lymph node/plasma, po, 5 mg/kg, 4 hr, read-out: Lymph node to plasma ratio individual): 1.16 | Kp at 8 h ([2]; male, Wistar Han, rat, lymph node/plasma, po, 5 mg/kg, 8 hr, read-out: Lymph node to plasma ratio Mean): 0.994 | Kp at 8 h ([2]; male, Wistar Han, rat, lymph node/plasma, po, 5 mg/kg, 8 hr, read-out: Lymph node to plasma ratio individual): 0.994 | Kp ([2]; male, Wistar Han, rat, lymph node/plasma, po, 5 mg/kg, read-out: AUClimphnode/AUCplasma): 2.99 | concentration at 1 h ([2]; male, Wistar Han, rat, plasma, po, 5 mg/kg, 1 hr, read-out: plasma Concentration Mean): 213 ng/mL | concentration at 1 h ([2]; male, Wistar Han, rat, plasma, po, 5 mg/kg, 1 hr, read-out: plasma Concentration individual): 196 ng/mL | concentration at 1 h ([2]; male, Wistar Han, rat, spleen, po, 5 mg/kg, 1 hr, read-out: spleen Concentration Mean): 165 ng/g | concentration at 1 h ([2]; male, Wistar Han, rat, spleen, po, 5 mg/kg, 1 hr, read-out: spleen Concentration individual): 175 ng/g | concentration at 4 h ([2]; male, Wistar Han, rat, spleen, po, 5 mg/kg, 4 hr, read-out: spleen Concentration Mean): 15.4 ng/g | Kp at 1 h ([2]; male, Wistar Han, rat, spleen/plasma, po, 5 mg/kg, 1 hr, read-out: Spleen to plasma ratio Mean): 0.785 | Kp at 1 h ([2]; male, Wistar Han, rat, spleen/plasma, po, 5 mg/kg, 1 hr, read-out: Spleen to plasma ratio individual): 0.893 | Kp at 4 h ([2]; male, Wistar Han, rat, spleen/plasma, po, 5 mg/kg, 4 hr, read-out: Spleen to plasma ratio Mean): 0.289 | Kp at 4 h ([2]; male, Wistar Han, rat, spleen/plasma, po, 5 mg/kg, 4 hr, read-out: Spleen to plasma ratio individual): 0.319 | Kp ([2]; male, Wistar Han, rat, spleen/plasma, po, 5 mg/kg, read-out: AUCspleen/AUCplasma): 0.558 | AUC(0-t) ([2]; spleen, male Wistar Han rat, read-out: AUClast (spleen)): 353 ng·h/mL
Structure (SMILES): CC(C)CN(c1ccc([C@H](C)CC(=O)O)cc1Nc1cnc(Cl)cn1)C1CCOCC1 [intermediate C4]
